Assay results reported in patent EP0833842B1, “NOVEL PEPTIDES FOR USE IN TREATMENT OF T-CELL MEDIATED CARTILAGE DESTRUCTION IN AUTOIMMUNE DISEASES” (Akzo Nobel N.V., priority 1995, dated 1999).
Where no end group is shown, it is not given here.

Target: DR4 (DRB1*0401) (Homo sapiens, UniProt P01903+P01911, A100K/A169T/F76Y/I96L/K127E/L162R/M171V/N62H/P40V/Q125Y/R42H/S133A/S149N/S66Y/V115G/V209L/W38E)
Assay: Peptide HLA-DR binding assay (semi-quantitative competition with biotinylated marker peptide)
Conditions: read-out: DRB1*0401 ^eIC50
Protocol: Two EBV-transformed B-cell lines, BSM (typed as DR4 [DRB1*0401] and BM92 (typed as DR4 [DRB1*0404) were provided by Dr. M. Oudshoom from the Academic Hospital Leiden, the Netherlands. The cells were cultured in Dulbecco's modified eagles minimal essential medium DMEM/HAM's F12 (Gibco Laboratories, Grand Island, NY) supplemented with 10% FCS (Hyclone Laboratories), 1% non-essential amino acids (ICI), L-glutamine, 2-ME and antibiotics. Cells were routinely passaged every 2-3 days in a 1:2 ratio. Cells were harvested and thereafter washed three times in phosphate buffer saline (PBS) (4°C) containing 1 mM PMSF. Cell pellets were stored at -70°C until use. HLA-DR expressing cells were thawed and lysed on ice for 30 minutes in PBS, 1% NP-40, 1 mM AEBSF (Calbiochem). The lysate was cleared of nuclei and debris by centrifugation at 15.000 rpm (Sorvall, SS34 rotor) for 30 minutes.
HLA-DR molecules were affinity purified from cell lysates using monoclonal antibody L243 (ATCC), directed against a nonpolymorphic determinant on the DR-complex (Lampson et al., J. Immunol. 125:293, 1980). Protein G sepharose purified L243 was coupled to NHS-Sepharose 4 FF (Pharmacia) according to the manufactures instructions. The cleared cell-lysate was passed through a 0.45 µm filter and added to L243-NHS-sepharose beads. […] Collected fractions were analysed on SDS-PAGE under non-reducing conditions followed by silver staining. […]
The peptide binding studies were performed using a semi-quantitative binding assay as described previously (Joosten et al., Int. Immunol. 6:751, 1994).
After approximately 48 hours incubation at room temperature, bound and unbound marker peptides were separated by SDS-PAGE under non-reducing conditions. […] Biotinylated peptides were detected by enhanced chemoluminescence using a Westem Blot ECL kit (Amersham, U.K.) according to the manufactures instructions. […]

Sequence	IC50 [µM]
AGWLADRSVRYPI [HAG2]	1 to 10
AGWLADGSLRYPI [HAG3]	1 to 10
AGWLSDGSVQYPI [HCLP1]	10 to 100
